From ChEMBL document CHEMBL3886745, “Pyrrolidine compounds” (2016) come the findings set out here.

The structures appear in SMILES notation.

As a reminder, the Ki is the dissociation constant of the complex between target and ligand, obtained from inhibition or displacement.

This test concerns the target T1, Neuromedin-K receptor (Homo sapiens, UniProt P29371).
T1 sequence (P29371 whole entry): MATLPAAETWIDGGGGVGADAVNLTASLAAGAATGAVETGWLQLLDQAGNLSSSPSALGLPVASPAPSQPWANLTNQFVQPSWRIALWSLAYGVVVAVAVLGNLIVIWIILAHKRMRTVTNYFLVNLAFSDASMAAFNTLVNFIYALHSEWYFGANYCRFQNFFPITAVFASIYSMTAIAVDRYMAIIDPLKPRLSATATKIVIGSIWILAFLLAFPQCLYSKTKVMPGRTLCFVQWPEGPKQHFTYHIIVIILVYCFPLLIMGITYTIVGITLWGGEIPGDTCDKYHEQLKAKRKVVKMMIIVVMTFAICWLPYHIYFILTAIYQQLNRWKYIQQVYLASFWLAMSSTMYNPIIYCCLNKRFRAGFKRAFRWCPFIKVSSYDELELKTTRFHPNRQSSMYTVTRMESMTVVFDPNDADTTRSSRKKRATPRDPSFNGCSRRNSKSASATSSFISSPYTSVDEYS
Description: [3H]SR142801 Competition Binding Assay: hNK3 receptor binding experiment were performed using [3H]SR142801 (Catalog No. TRK1035, specific activity: 74.0 Ci/mmol, Amersham, GE Healthcare UK limited, Buckinghamshire, UK) and membrane isolated from HEK293 cells transiently expressing recombinant human NK3 receptor. After thawing, the membrane homogenates were centrifuged at 48,000×g for […] at 4° C., the pellets were resuspended in the 50 mM Tris-HCl, 4 mM MnCl2, 1 μM phosphoramidon, 0.1% BSA binding buffer at pH 7.4 to a final assay concentration of 5 μg protein/well. For inhibition experiments, membranes were incubated with [3H]SR142801 at a concentration equal to KD value of radioligand and 10 concentrations of the inhibitory compound (0.0003-10 μM) (in a total reaction volume of 500 μl) for 75 min at room temperature (RT). At the end of the incubation, membranes were filtered onto unitfilter (96-well white microplate with bonded GF/C filter preincubated 1 h in 0.3% PEI+0.3% BSA, Packard BioScience, Meriden, Conn.) with a Filtermate 196 harvester (Packard BioScience) and washed 4 times with ice-cold 50 mM Tris-HCl, pH 7.4 buffer. Nonspecific binding was measured in the presence of 10 μM SB222200 for both radioligands. […]. It is filed as cell membranes.

On to `CCN(C(=O)Oc1ccc(F)cc1)[C@@H]1CN(C(=O)C2CCN(c3ccc(C(F)(F)F)cn3)CC2)C[C@H]1c1ccc(F)c(F)c1`, for which the Ki is 9 nM. Regarding `CCN(C(=O)Oc1ccc(F)cc1)[C@@H]1CN(C(=O)C2CCN(c3ccc(OC(C)=O)cn3)CC2)C[C@H]1c1ccc(Cl)cc1`, the Ki was found to be 6 nM.
